Values of other authors in patent publication US20100099776A1, “OILY SUSPENSION OF ATOVAQUONE” (RANBAXY LABORATORIES LIMITED, priority 2008, published 2010).

Conditions: single oral dose

O=C1C(O)=C([C@H]2CC[C@H](c3ccc(Cl)cc3)CC2)C(=O)c2ccccc21 [Atovaquone, 244-(4-chlorophenyl)cyclohexyl′-3-hydroxy-1,4-naphthoquinone]
dose above which absorption is dose-limited: above 750 mg | increase of absorption by the presence of fatty food (with fatty food): about three-fold
